From patent publication US4226883A, “Carbamate derivatives and method for manufacture thereof” (priority 1974, dated 1980)
Like-named read-outs stand apart in the source and are kept apart here.

Columns and labels:
[1] = tested on: green rice leafhoppers of the strain RN; experiment: Test Example 3: dust spray test (20 mesh metal gauze cylinder); format: in vivo, Nephotettix cincticeps; conditions: for mortality at 100 mg/cylinder / mortality at 250 mg/cylinder: 24 hr; for Effect of individual compound (RN), death ratio (%) (Table 9): dust, compound alone, RN strain; for death ratio (%), mixture with Compound No. 1 / death ratio (%), mixture with Compound No. 6* / death ratio (%), mixture with Compound No. 24* / death ratio (%), mixture with Compound No. 35* / death ratio (%), mixture with Compound No. 40* / death ratio (%), mixture with Compound No. 49* / death ratio (%), mixture with Compound No. 81* / death ratio (%), mixture with Compound No. 118* / death ratio (%), mixture with Carbofuran / death ratio (%), mixture with Methomyl: Table 9, RN; for death ratio (%), mixture with Compound No. 1: dust mixed with 1; for death ratio (%), mixture with Compound No. 6*: dust mixed with 6*; for death ratio (%), mixture with Compound No. 24*: dust mixed with 24*; for death ratio (%), mixture with Compound No. 35*: dust mixed with 35*; for death ratio (%), mixture with Compound No. 40*: dust mixed with 40*; for death ratio (%), mixture with Compound No. 49*: dust mixed with 49*; for death ratio (%), mixture with Compound No. 81*: dust mixed with 81*; for death ratio (%), mixture with Compound No. 118*: dust mixed with 118*; for death ratio (%), mixture with Carbofuran: dust mixed with Carbofuran; for death ratio (%), mixture with Methomyl: dust mixed with Methomyl
Procedure: The insecticides in the form of dust were tested for insecticidal activity.
The test for insecticidal activity was performed by the following procedure. […] The dust of a test compound (pulverized by means of a shaking pulverizer made by Taira Kosakusho, Ltd.) was applied onto the tube contents at a prescribed rate by spraying from outside the metal gauze by means of a bell-jar duster. The dust of the test compound was prepared uniformly mixing 2 parts of the dust of the individual compound or 1 part each of the dusts of the mixture components (total 2 parts) and 98 parts of a carrier obtained by mixing talc and clay in equal volumes.

[2] = tested on: resistant green rice leafhoppers (R); conditions: ratio of the resistant strain to the susceptible strain (LD50); 1440 min
Procedure: (1) A 20-mg portion of a given test compound was weighed out and dissolved in 10 ml of acetone. The resultant solution was diluted at proper times with acetone.
(2) With a micro-syringe, the acetone solution of the test compound was topically applied to the thoracic region of female green rice leafhoppers at a fixed dose of 0.2 μl per head.
(3) The female green rice leafhoppers thus treated were placed in a plastic cup prepared in advance (measuring 7 cm in diameter and 3.5 cm in depth and containing rice seeds) and kept at a constant temperature of 26±1° C. After 24 hours' standing, the dead insects were counted.
In the case of a mixed insecticide, the LD50 was shown as a total dosage.

[3] = 2% dust, 100 mg, read-out: Mortality (%) after 24 hr., 100 mg Spray (Table 7)
[4] = 2% dust, 250 mg, read-out: Mortality (%) after 24 hr., 250 mg Spray (Table 7)
[5] = Table 8, dust 100 mg, read-out: Mortality (%) after 24 hr., Spray Volume 100 mg
[6] = Table 8, dust 250 mg, read-out: Mortality (%) after 24 hr., Spray Volume 250 mg

SMILES: C=CCNC(=O)Oc1cccc(C)c1 [Compound 28, 3-methylphenyl-N-allylcarbamate]
- mortality at 100 mg/cylinder [1, 3]: 60%
- mortality at 250 mg/cylinder [1, 4]: 100%
- Insecticidal Activity R/S (resistant ratio) [2]: 1.8

SMILES: CNC(=O)Oc1cc(C)cc(C)c1 [Compound 40, 3,5-dimethylphenyl-N-methylcarbamate, reference compound]
- mortality at 100 mg/cylinder [1, 3]: 5%
- mortality at 250 mg/cylinder [1, 4]: 15%
- mortality at 100 mg/cylinder [1, 5]: 5%
- mortality at 250 mg/cylinder [1, 6]: 15%
- Effect of individual compound (RN), death ratio (%) (Table 9) [1]: 0%
- Insecticidal Activity R/S (resistant ratio) [2]: 5.3

SMILES: CCCNC(=O)Oc1cccc(OCC)c1 [Compound 94, 3-ethoxyphenyl-N-n-propylcarbamate]
- death ratio (%), mixture with Compound No. 1 [1]: 80.0%
- death ratio (%), mixture with Compound No. 6* [1]: 85.0%
- death ratio (%), mixture with Compound No. 24* [1]: 95.0%
- death ratio (%), mixture with Compound No. 35* [1]: 95.0%
- death ratio (%), mixture with Compound No. 40* [1]: 85.0%
- death ratio (%), mixture with Compound No. 49* [1]: 35.0%
- death ratio (%), mixture with Compound No. 81* [1]: 95.0%
- death ratio (%), mixture with Compound No. 118* [1]: 95.0%
- death ratio (%), mixture with Carbofuran [1]: 90.0%
- death ratio (%), mixture with Methomyl [1]: 100%
- Effect of individual compound (RN), death ratio (%) (Table 9) [1]: 0%

SMILES: CCNC(=O)Oc1cccc(C)c1 [Compound 25, 3-methylphenyl-N-ethylcarbamate]
- Insecticidal Activity R/S (resistant ratio) [2]: 3.7

SMILES: CCNC(=O)Oc1cc(C)cc(C(C)C)c1 [Compound 46, 3-methyl-5-isopropylphenyl-N-ethylcarbamate]
- mortality at 100 mg/cylinder [1, 3]: 45%
- mortality at 250 mg/cylinder [1, 4]: 70%
- Insecticidal Activity R/S (resistant ratio) [2]: 0.9

SMILES: CNC(=O)Oc1cc(C)c(N(C)C)c(C)c1 [Compound 118, 4-dimethylamino-3,5-dimethylphenyl-N-methylcarbamate, reference compound]
- Effect of individual compound (RN), death ratio (%) (Table 9) [1]: 23.4%

SMILES: C=CCNC(=O)Oc1ccc(C)c(C)c1 [Compound 39, 3,4-dimethylphenyl-N-allylcarbamate]
- mortality at 100 mg/cylinder [1, 3]: 50%
- mortality at 250 mg/cylinder [1, 4]: 60%
- Insecticidal Activity R/S (resistant ratio) [2]: 0.8

SMILES: CCCNC(=O)Oc1cccc(C(C)C)c1 [Compound 13, 3-isopropylphenyl-N-n-propylcarbamate]
- Insecticidal Activity R/S (resistant ratio) [2]: 1.4

SMILES: CNC(=O)Oc1cccc(C)c1 [Compound 24, 3-methylphenyl-N-methylcarbamate, reference compound]
- mortality at 100 mg/cylinder [1, 3]: 0%
- mortality at 250 mg/cylinder [1, 4]: 20%
- mortality at 100 mg/cylinder [1, 5]: 0%
- mortality at 250 mg/cylinder [1, 6]: 20%
- Effect of individual compound (RN), death ratio (%) (Table 9) [1]: 0%
- Insecticidal Activity R/S (resistant ratio) [2]: 9.9

SMILES: CNC(=O)Oc1cc(C)cc(C(C)C)c1 [Compound 45, 3-methyl-5-isopropylphenyl-N-methylcarbamate, reference compound]
- mortality at 100 mg/cylinder [1, 3]: 0%
- mortality at 250 mg/cylinder [1, 4]: 10%
- Insecticidal Activity R/S (resistant ratio) [2]: 11.6

SMILES: CCCNC(=O)Oc1ccccc1OC [Compound 77, 2-methoxyphenyl-N-n-propylcarbamate]
- death ratio (%), mixture with Compound No. 1 [1]: 95.0%
- death ratio (%), mixture with Compound No. 6* [1]: 100%
- death ratio (%), mixture with Compound No. 24* [1]: 100%
- death ratio (%), mixture with Compound No. 35* [1]: 100%
- death ratio (%), mixture with Compound No. 40* [1]: 95.0%
- death ratio (%), mixture with Compound No. 49* [1]: 50.0%
- death ratio (%), mixture with Compound No. 81* [1]: 80.0%
- death ratio (%), mixture with Compound No. 118* [1]: 100%
- death ratio (%), mixture with Carbofuran [1]: 100%
- death ratio (%), mixture with Methomyl [1]: 100%
- Effect of individual compound (RN), death ratio (%) (Table 9) [1]: 45.0%

SMILES: CCNC(=O)Oc1ccccc1OC(C)C [Compound 82, 2-isopropoxyphenyl-N-ethylcarbamate]
- death ratio (%), mixture with Compound No. 1 [1]: 25.0%
- death ratio (%), mixture with Compound No. 6* [1]: 50.0%
- death ratio (%), mixture with Compound No. 24* [1]: 45.0%
- death ratio (%), mixture with Compound No. 35* [1]: 60.0%
- death ratio (%), mixture with Compound No. 40* [1]: 45.0%
- death ratio (%), mixture with Compound No. 49* [1]: 15.0%
- death ratio (%), mixture with Compound No. 81* [1]: 55.0%
- death ratio (%), mixture with Compound No. 118* [1]: 80.0%
- death ratio (%), mixture with Carbofuran [1]: 80.0%
- death ratio (%), mixture with Methomyl [1]: 85.0%
- Effect of individual compound (RN), death ratio (%) (Table 9) [1]: 15.0%

SMILES: CCCNC(=O)Oc1cccc(C(C)(C)C)c1 [Compound 33, 3-tert-butylphenyl-N-n-propylcarbamate]
- Insecticidal Activity R/S (resistant ratio) [2]: 1.5
